Results from BigSolDB 2.1.

Nc1ccc(Oc2ccc(N)cc2)cc1
solubility (mole fraction)
Details	293.15 K	298.15 K	303.15 K	308.15 K	313.15 K	318.15 K	323.15 K	328.15 K	333.15 K
in DMAc	0.14	0.144	0.148	0.152	0.157	0.164	0.166	0.177	0.184
in DMF	0.113	0.117	0.12	0.126	0.132	0.139	0.146	0.152	0.161
in DMSO	0.149	0.153	0.159	0.165	0.171	0.181	0.185	0.192	0.201
